Test results: patent US9371336B2, “Compounds for treating spinal muscular atrophy” (PTC Therapeutics Inc., priority 2012, dated 2016)

Columns and labels:
[1] = test system: SMN2 minigene mRNA (SMN2-A minigene construct); assay: SMN2 minigene mRNA splicing RT-qPCR assay in cultured cells; type: cell-based, human; details: Homo sapiens, HEK293-H; HEK293H cells stably transfected with SMN2-A minigene, 24 hours, 7-point concentration data; concentration giving 1.5-fold SMN2 full length mRNA relative to vehicle-treated cells; read-out: EC1.5x for production of full length SMN2 mRNA
How it was run: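 Full-length SMN2 minigene mRNA, measured by exon 7/luciferase-specific RT-qPCR that excludes endogenous SMN1/SMN2, was normalized to GAPDH and expressed relative to vehicle-treated cells via modified ΔΔCt. Stably transfected HEK293H cells received compound (7-point, 3.16-fold series, duplicates) for 24 h at 37 °C.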

Smn protein = Smn protein assay (HTRF) in cultured cells (SMA patient fibroblasts GM03813); type: cell-based, human; details: 48 hours; for EC1.5x for Smn protein expression: SMA patient fibroblast cells (GM03813), HTRF, 7-point concentration data, concentration producing 1.5 times Smn protein vs DMSO vehicle control; for maximum fold (Fold) increase of Smn protein: SMA patient fibroblast cells, 7-point concentration curve, relative to vehicle control
How it was run: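 SMA patient fibroblasts (GM03813) were treated 48 h at 37° C with a 7-point, 3.16-fold compound series in triplicate, then lysed in RIPA. Smn was read by HTRF (anti-SMN d2/kryptate, 665/620 nm ratio). ΔF versus blank was divided by vehicle ΔF to give fold Smn increase.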

Compound | EC (1.5-fold) [1] [µM] | EC1.5x for Smn protein expression (Smn protein) | maximum fold (Fold) increase of Smn protein (Smn protein) | melting point [°C]
O=c1oc2nc(N3CCN(CCO)CC3)ccc2cc1-c1nc2c(Cl)cccc2s1 [Cpd 10, 3-(4-chloro-1,3-benzothiazol-2-yl)-7-[4-(2-hydroxyethyl)piperazin-1-yl]-2H-pyrano[2,3-b]pyridin-2-one] | 0.3 to 1 | *** (an EC1.5× between >0.3 μM and ≦1 μM is indicated by three stars (***)) | *** (a fold increase between >1.35 and ≦1.5 is indicated by three stars (***)) | 258 to 262
CN1CCN(c2cc3oc(=O)c(-c4nc5c(Cl)cccc5s4)cc3cn2)CC1 [Cpd 11, 3-(4-chloro-1,3-benzothiazol-2-yl)-7-(4-methylpiperazin-1-yl)-2H-pyrano[3,2-c]pyridin-2-one] | 0.3 to 1 |  | * (A maximum fold increase ≦1.2 is indicated by one star (*)) | 285 to 288
CCN1CCN(c2ccc3cc(-c4nc5c(Cl)cccc5s4)c(=O)oc3n2)CC1 [Cpd 12, 3-(4-chloro-1,3-benzothiazol-2-yl)-7-(4-ethylpiperazin-1-yl)-2H-pyrano[2,3-b]pyridin-2-one] | 0.3 to 1 |  | *** (a fold increase between >1.35 and ≦1.5 is indicated by three stars (***)) | 266 to 269
CCCN1CCN(c2ccc3cc(-c4nc5c(Cl)cccc5s4)c(=O)oc3n2)CC1 [Cpd 13, 3-(4-chloro-1,3-benzothiazol-2-yl)-7-(4-propylpiperazin-1-yl)-2H-pyrano[2,3-b]pyridin-2-one] | 1 to 3 |  | *** (a fold increase between >1.35 and ≦1.5 is indicated by three stars (***)) | 251 to 254
Cc1csc(-c2cc3ccc(N4CCNCC4)nc3oc2=O)n1.Cl [Cpd 15, 3-(4-methyl-1,3-thiazol-2-yl)-7-(piperazin-1-yl)-2H-pyrano[2,3-b]pyridin-2-one hydrochloride] | 3 to 30 |  | ** (a fold increase between >1.2 and ≦1.35 is indicated by two stars (**)) | 238 to 242
Cl.O=c1oc2nc(N3CCNCC3)ccc2cc1-c1nc(C(F)(F)F)cs1 [Cpd 16, 7-(piperazin-1-yl)-3-[4-(trifluoromethyl)-1,3-thiazol-2-yl]-2H-pyrano[2,3-b]pyridin-2-one hydrochloride] | 1 to 3 |  | * (A maximum fold increase ≦1.2 is indicated by one star (*)) | 274 to 280
CCN1CCN(c2ccc3cc(-c4nc5ccccc5s4)c(=O)oc3n2)CC1 [Cpd 17, 3-(1,3-benzothiazol-2-yl)-7-(4-ethylpiperazin-1-yl)-2H-pyrano[2,3-b]pyridin-2-one] | 0.3 to 1 |  | *** (a fold increase between >1.35 and ≦1.5 is indicated by three stars (***)) | 254 to 257
CCCN1CCN(c2ccc3cc(-c4nc5ccccc5s4)c(=O)oc3n2)CC1 [Cpd 18, 3-(1,3-benzothiazol-2-yl)-7-(4-propylpiperazin-1-yl)-2H-pyrano[2,3-b]pyridin-2-one] | 1 to 3 |  | * (A maximum fold increase ≦1.2 is indicated by one star (*)) | 247 to 250
CC(C)N1CCN(c2ccc3cc(-c4nc5ccccc5s4)c(=O)oc3n2)CC1 [Cpd 19, 3-(1,3-benzothiazol-2-yl)-7-[4-(propan-2-yl)piperazin-1-yl]-2H-pyrano[2,3-b]pyridin-2-one] | 0.3 to 1 |  | ** (a fold increase between >1.2 and ≦1.35 is indicated by two stars (**)) | 241 to 245
CCN1CCN(c2ccc3cc(-c4nc(C)cs4)c(=O)oc3n2)CC1 [Cpd 20, 7-(4-ethylpiperazin-1-yl)-3-(4-methyl-1,3-thiazol-2-yl)-2H-pyrano[2,3-b]pyridin-2-one] | 3 to 30 |  | * (A maximum fold increase ≦1.2 is indicated by one star (*)) | 228 to 232
CCCN1CCN(c2ccc3cc(-c4nc(C)cs4)c(=O)oc3n2)CC1 [Cpd 21, 3-(4-methyl-1,3-thiazol-2-yl)-7-(4-propylpiperazin-1-yl)-2H-pyrano[2,3-b]pyridin-2-one] | 3 to 30 |  | * (A maximum fold increase ≦1.2 is indicated by one star (*)) | 210 to 214
O=c1oc2nc(N3CCN(CC(O)CO)CC3)ccc2cc1-c1nc2c(Cl)cccc2s1 (stereo not shown) [Cpd 22, 3-(4-chloro-1,3-benzothiazol-2-yl)-7-[4-(2,3-dihydroxypropyl)piperazin-1-yl]-2H-pyrano[2,3-b]pyridin-2-one] | 0.3 to 1 | *** (an EC1.5× between >0.3 μM and ≦1 μM is indicated by three stars (***)) | **** (a fold increase between >1.5 and ≦1.65 is indicated by four stars (****)) | 216 to 220
CC(C)N1CCN(c2ccc3cc(-c4nc5c(Cl)cccc5s4)c(=O)oc3n2)CC1 [Cpd 23, 3-(4-chloro-1,3-benzothiazol-2-yl)-7-[4-(propan-2-yl)piperazin-1-yl]-2H-pyrano[2,3-b]pyridin-2-one] | 0.3 to 1 |  | ** (a fold increase between >1.2 and ≦1.35 is indicated by two stars (**)) | 230 to 234
Cc1ccc2nc(-c3cc4ccc(N5CCNCC5)nc4oc3=O)cn2c1.Cl [Cpd 24, 3-(6-methylimidazo[1,2-a]pyridin-2-yl)-7-(piperazin-1-yl)-2H-pyrano[2,3-b]pyridin-2-one hydrochloride] | 0.3 to 1 |  | ** (a fold increase between >1.2 and ≦1.35 is indicated by two stars (**)) | 218 to 222
O=c1oc2nc(N3CCN(CCO)CC3)ccc2cc1-c1nc2ccccc2s1 [Cpd 25, 3-(1,3-benzothiazol-2-yl)-7-[4-(2-hydroxyethyl)piperazin-1-yl]-2H-pyrano[2,3-b]pyridin-2-one] | 0.3 to 1 |  | *** (a fold increase between >1.35 and ≦1.5 is indicated by three stars (***)) | 220 to 224
O=c1oc2nc(N3CCN(CC(O)CO)CC3)ccc2cc1-c1nc2ccccc2s1 (stereo not shown) [Cpd 26, 3-(1,3-benzothiazol-2-yl)-7-[4-(2,3-dihydroxypropyl)piperazin-1-yl]-2H-pyran [2,3-b]pyridin-2-one] | 1 to 3 |  | ** (a fold increase between >1.2 and ≦1.35 is indicated by two stars (**)) | 236 to 239
Cc1ccn2cc(-c3cc4ccc(N5CCNCC5)nc4oc3=O)nc2c1.Cl [Cpd 29, 3-(7-methylimidazo[1,2-a]pyridin-2-yl)-7-(piperazin-1-yl)-2H-pyrano[2,3-b]pyridin-2-one hydrochloride] | ≤ 0.1 |  | *** (a fold increase between >1.35 and ≦1.5 is indicated by three stars (***)) | 240 to 244
Cl.O=c1oc2nc(N3CCCNCC3)ccc2cc1-c1cn2cccnc2n1 [Cpd 30, 7-(1,4-diazepan-1-yl)-3-(imidazo[1,2-a]pyrimidin-2-yl)-2H-pyrano[2,3-b]pyridin-2-one hydrochloride] | 0.1 to 0.3 | ** (an EC1.5× between >1 and ≦3 μM is indicated by two stars (**)) | *** (a fold increase between >1.35 and ≦1.5 is indicated by three stars (***)) | 250 to 252
Cl.O=c1oc2nc(N3CCCNCC3)ccc2cc1-c1nc2c(Cl)cccc2s1 [Cpd 31, 3-(4-chloro-1,3-benzothiazol-2-yl)-7-(1,4-diazepan-1-yl)-2H-pyrano[2,3-b]pyridin-2-one hydrochloride] | 0.1 to 0.3 |  | ** (a fold increase between >1.2 and ≦1.35 is indicated by two stars (**)) | 271 to 273
Cl.O=c1oc2nc(N3CCCNCC3)ccc2cc1-c1cn2ccsc2n1 [Cpd 32, 7-(1,4-diazepan-1-yl)-3-(imidazo[2,1-b][1,3]thiazol-6-yl)-2H-pyrano[2,3-b]pyridin-2-one hydrochloride] | ≤ 0.1 |  | *** (a fold increase between >1.35 and ≦1.5 is indicated by three stars (***)) | 267 to 269
Cc1ccc2nc(-c3cc4cnc(N5CCN(C)CC5)cc4oc3=O)cn2c1 [Cpd 34, 3-(6-methylimidazo[1,2-a]pyridin-2-yl)-7-(4-methylpiperazin-1-yl)-2H-pyrano[3,2-c]pyridin-2-one] | 1 to 3 |  | *** (a fold increase between >1.35 and ≦1.5 is indicated by three stars (***)) | 264 to 268
CN1CCCN(c2ccc3cc(-c4cn5cccnc5n4)c(=O)oc3n2)CC1 [Cpd 36, 3-(imidazo[1,2-a]pyrimidin-2-yl)-7-(4-methyl-1,4-diazepan-1-yl)-2H-pyrano[2,3-b]pyridin-2-one] | 0.3 to 1 | ** (an EC1.5× between >1 and ≦3 μM is indicated by two stars (**)) | **** (a fold increase between >1.5 and ≦1.65 is indicated by four stars (****)) | 232 to 234
